Test results as given in patent US11426465B2, “Hydrazinyl-indole compounds and methods for producing a conjugate” (Redwood Bioscience, Inc., priority 2012, dated 2022).

What was measured:
[1] = HPLC kinetics assay: condensation of model amines with benzyloxyacetaldehyde; conditions: 50 μM amine and aldehyde, room temperature, 2 h, above pH 6
Procedure: Experimental Protocol for HPLC Kinetics Assay: Reaction mixtures contained amine 4, 6, 7, or 8 (50 μM), benzyloxyacetaldehyde (50 μM), bromocresol green (10 μM), and buffer (10 mM) in a 120 μL aqueous solution containing 6.7% MeCN, which was present to solubilize the stock solution (1 mM) of benzyloxyacetaldehyde. After 2 h at room temperature, a 100 μL aliquot was analyzed by HPLC, employing a gradient of 10 to 100% acetonitrile in water over 18 min.
As described above, buffered solutions containing 50 μM amine and aldehyde were incubated at room temperature for 2 h prior to analysis by HPLC.

[2] = basic moiety of the compound (trialkylhydrazine / O-alkylaminooxy); cited from earlier work

For `CNN(C)Cc1cc2ccccc2n1CCC(=O)O` [Compound 4, Piperidinium 3-(2-((1,2-dimethylhydrazinyl)methyl)-1H-indol-1-yl)propanoate], the “% conversion to product” value [1] is given as “higher % conversion to product than the other amine nucleophiles” and the pKa [2] is given as ~6.56.
